Experiments:
Format in all cases: biochemical
[1] = biological target: T1, human FLT3 (Homo sapiens, UniProt P36888); assay: FLT3 kinase assay (DELFIA enzyme inhibition)
T1 construct: a construct expressing the human FLT3 (564-993) with an amino terminal GST tag; host or cells: Sf9 insect cells (baculovirus)
T1 sequence (P36888 564-993): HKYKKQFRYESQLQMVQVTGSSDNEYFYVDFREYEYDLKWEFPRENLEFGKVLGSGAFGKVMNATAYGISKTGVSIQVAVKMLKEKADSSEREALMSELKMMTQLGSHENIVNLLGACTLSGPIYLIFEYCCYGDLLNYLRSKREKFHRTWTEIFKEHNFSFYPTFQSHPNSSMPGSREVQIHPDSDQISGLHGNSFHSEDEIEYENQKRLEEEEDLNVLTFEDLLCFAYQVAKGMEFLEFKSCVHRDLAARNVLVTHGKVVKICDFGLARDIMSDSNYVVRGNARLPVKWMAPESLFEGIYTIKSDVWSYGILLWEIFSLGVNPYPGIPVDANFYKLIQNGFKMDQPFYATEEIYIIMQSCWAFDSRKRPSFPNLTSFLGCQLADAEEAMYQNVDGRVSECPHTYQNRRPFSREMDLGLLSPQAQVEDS
How it was run: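 GST-tagged human FLT3 (564-993), expressed in sf9 cells, phosphorylated a biotinylated Gastrin Precursor (Tyr 87)-derived peptide for 30 min at room temperature before EDTA stop. The captured peptide was detected by Eu-labelled anti-phosphotyrosine DELFIA time-resolved fluorescence. IC50 was derived from % inhibition curves.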

[2] = biological target: T2, human Aurora A (Homo sapiens, UniProt O14965); assay: Aurora A kinase assay (DELFIA enzyme inhibition); conditions: read-out: Aurora A IC50
T2 construct: Histidine tag (N); host or cells: Sf9 insect cells (baculovirus)
T2 sequence (O14965 1-403): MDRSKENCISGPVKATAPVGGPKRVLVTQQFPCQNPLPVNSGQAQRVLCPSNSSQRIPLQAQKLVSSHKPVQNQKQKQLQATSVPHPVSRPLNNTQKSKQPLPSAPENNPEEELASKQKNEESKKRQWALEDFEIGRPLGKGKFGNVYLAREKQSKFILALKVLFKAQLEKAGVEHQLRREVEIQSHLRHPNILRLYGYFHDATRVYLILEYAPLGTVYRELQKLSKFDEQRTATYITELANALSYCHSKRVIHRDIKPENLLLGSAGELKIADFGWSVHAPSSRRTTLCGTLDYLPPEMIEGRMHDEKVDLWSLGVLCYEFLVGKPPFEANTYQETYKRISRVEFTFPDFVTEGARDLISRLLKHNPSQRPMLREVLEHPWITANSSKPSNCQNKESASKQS
How it was run: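 DELFIA read-out (time-resolved Eu fluorescence, 620 nm emission) after Neutravidin capture of biotinylated peptide substrate and antibody detection. Reaction: Ni-agarose-purified Aurora A, 30 min at room temperature, stopped with 100 mM EDTA.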

[3] = biological target: T3, human FLT4 (Homo sapiens, UniProt P35916); assay: FLT4 kinase assay (DELFIA enzyme inhibition); conditions: read-out: FLT4 IC50
T3 construct: a construct expressing the human FLT4 (789-1207) with an amino terminal GST tag; host or cells: Sf9 insect cells (baculovirus)
T3 sequence (P35916 789-1207): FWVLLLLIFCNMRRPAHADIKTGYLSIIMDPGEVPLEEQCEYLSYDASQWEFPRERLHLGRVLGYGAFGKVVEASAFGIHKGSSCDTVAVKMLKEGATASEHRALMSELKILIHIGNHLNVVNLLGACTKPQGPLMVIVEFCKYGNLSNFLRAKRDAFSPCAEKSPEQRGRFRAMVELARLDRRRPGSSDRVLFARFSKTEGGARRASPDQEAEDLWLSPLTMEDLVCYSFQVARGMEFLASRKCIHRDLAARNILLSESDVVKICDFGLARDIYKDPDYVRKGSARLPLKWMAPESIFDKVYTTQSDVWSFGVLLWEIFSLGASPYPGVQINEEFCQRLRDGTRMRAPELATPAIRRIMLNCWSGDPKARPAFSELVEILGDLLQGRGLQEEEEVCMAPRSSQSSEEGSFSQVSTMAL
How it was run: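 Read-out is DELFIA: biotinylated MET Tyr1253-derived peptide captured on Neutravidin, phosphotyrosine detected by Eu-antibody time-resolved fluorescence. Enzyme is Sf9-expressed GST-FLT4 (789-1207), reacting 30 min at room temperature before EDTA stop. IC50 derived from plotted % inhibition.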

| SMILES | IC50 [1] [µM] | IC50 [2] [µM] | IC50 [3] [µM] |
| --- | --- | --- | --- |
| CN1CCN(CCOc2ccc(-c3oc(-c4c(F)cccc4F)nc3C(N)=O)cc2)CC1 [Example S-1, 2-(2,6-difluorophenyl)-5-(4-(2-(4-methylpiperazin-1-yl)ethoxy)phenyl)oxazole-4-carboxamide] | < 100 | < 10 | < 10 |
| NC(=O)c1nc(-c2c(F)cccc2N2CCC(O)CC2)oc1-c1ccc(OCCN2CCC(O)CC2)cc1 [Example S-3, 2-(2-fluoro-6-(4-hydroxypiperidin-1-yl)phenyl)-5-(4-(2-(4-hydroxypiperidin-1-yl)ethoxy)phenyl)oxazole-4-carboxamide] | < 100 | < 100 | < 100 |
| NC(=O)c1nc(-c2c(F)cccc2F)oc1-c1ccc(OCCN2CCC(O)CC2)cc1 [Example S-4, 2-(2,6-difluorophenyl)-5-(4-(2-(4-hydroxypiperidin-1-yl)ethoxy)phenyl)oxazole-4-carboxamide] | < 100 | < 10 | < 10 |
| NC(=O)c1nc(-c2c(F)cccc2F)oc1-c1ccc(OCCN2CCC[C@H]2CO)cc1 [Example S-5, (S)-2-(2,6-difluorophenyl)-5-(4-(2-(2-(hydroxymethyl)pyrrolidin-1-yl)ethoxy)phenyl)oxazole-4-carboxamide] | < 100 | < 10 | < 10 |
| NC(=O)c1nc(-c2c(F)cccc2F)oc1-c1ccc(OCCN2CCC[C@@H]2CO)cc1 [Example S-6, (R)-2-(2,6-difluorophenyl)-5-(4-(2-(2-(hydroxymethyl)pyrrolidin-1-yl)ethoxy)phenyl)oxazole-4-carboxamide] | < 10 | < 10 | < 10 |
| NC(=O)c1nc(-c2c(F)cccc2F)oc1-c1ccc(OCCN2CCN(CCO)CC2)cc1 [Example S-7, 2-(2,6-difluorophenyl)-5-(4-(2-(4-(2-hydroxyethyl)piperazin-1-yl)ethoxy)phenyl)oxazole-4-carboxamide] | < 10 | < 10 | < 10 |
| CN(CCO)CCOc1ccc(-c2oc(-c3c(F)cccc3F)nc2C(N)=O)cc1 [Example S-8, 2-(2,6-difluorophenyl)-5-(4-(2-((2-hydroxyethyl)(methyl)amino)ethoxy)phenyl)oxazole-4-carboxamide] | < 10 | < 10 | < 10 |
| NC(=O)c1nc(-c2c(F)cccc2F)oc1-c1ccc(OCCN2CCNC(=O)C2)cc1 [Example S-9, 2-(2,6-difluorophenyl)-5-(4-(2-(3-oxopiperazin-1-yl)ethoxy)phenyl)oxazole-4-carboxamide] | < 10 | < 10 | < 10 |
| NC(=O)c1nc(-c2c(F)cccc2F)oc1-c1ccc(OCCN2CCC(C(N)=O)CC2)cc1 [Example S-10, 1-(2-(4-(4-carbamoyl-2-(2,6-difluorophenyl)oxazol-5-yl)phenoxy)ethyl)piperidine-4-carboxamide] | < 10 | < 10 | < 10 |
| CN(CCOc1ccc(-c2oc(-c3c(F)cccc3F)nc2C(N)=O)cc1)Cc1ccccc1 [Example S-11, 5-(4-(2-(benzyl(methyl)amino)ethoxy)phenyl)-2-(2,6-difluorophenyl)oxazole-4-carboxamide] | < 10 | < 100 | < 10 |
| NC(=O)c1nc(-c2c(F)cccc2F)oc1-c1ccc(OCCCN2CCCCC2)cc1 [Example S-12, 2-(2,6-difluorophenyl)-5-(4-(3-(piperidin-1-yl)propoxy)phenyl)oxazole-4-carboxamide] | < 10 | < 10 | < 10 |
| NC(=O)c1nc(-c2c(F)cccc2F)oc1-c1ccc(OCCCN2CCOCC2)cc1 [Example S-13, 2-(2,6-difluorophenyl)-5-(4-(3-morpholinopropoxy)phenyl)oxazole-4-carboxamide] | < 10 | < 10 | < 10 |

Further lines, results first:

| IC50 [1] [µM] | IC50 [2] [µM] | IC50 [3] [µM] | SMILES |
| --- | --- | --- | --- |
| < 10 | < 10 | < 10 | NC(=O)c1nc(-c2c(F)cccc2F)oc1-c1ccc(OCC(O)CN2CCCCC2)cc1 (stereo not drawn) [Example T-1, 2-(2,6-difluorophenyl)-5-(4-(2-hydroxy-3-(piperidin-1-yl)propoxy)phenyl)oxazole-4-carboxamide] |
| < 10 | < 10 | < 10 | NC(=O)c1nc(-c2c(F)cccc2F)oc1-c1ccc(OCC(O)CN2CCOCC2)cc1 (stereo not drawn) [Example T-2, 2-(2,6-difluorophenyl)-5-(4-(2-hydroxy-3-morpholinopropoxy)phenyl)oxazole-4-carboxamide] |
| < 10 | < 10 | < 10 | CN1CCN(CC(O)COc2ccc(-c3oc(-c4c(F)cccc4F)nc3C(N)=O)cc2)CC1 (stereo not drawn) [Example T-3, 2-(2,6-difluorophenyl)-5-(4-(2-hydroxy-3-(4-methylpiperazin-1-yl)propoxy)phenyl)oxazole-4-carboxamide] |
| < 10 | < 10 | < 10 | NC(=O)c1nc(-c2c(F)cccc2F)oc1-c1ccc(OCC(O)CN2CCC(O)CC2)cc1 (stereo not drawn) [Example T-4, 2-(2,6-difluorophenyl)-5-(4-(2-hydroxy-3-(4-hydroxypiperidin-1-yl)propoxy)phenyl)oxazole-4-carboxamide] |
| < 10 | < 10 | < 10 | NC(=O)c1nc(-c2c(F)cccc2F)oc1Nc1ccc(C(=O)O)cc1 [Example U-1, 4-(4-carbamoyl-2-(2,6-difluorophenyl)oxazol-5-ylamino)benzoic acid] |
| < 10 | < 10 | < 10 | NC(=O)c1nc(-c2c(F)cccc2F)oc1Nc1ccc(C(=O)NCC2CN(Cc3ccccc3)CCO2)cc1 (stereo not drawn) [Example U-5, 5-(4-(((4-benzylmorpholin-2-yl)methyl)carbamoyl)phenylamino)-2-(2,6-difluorophenyl)oxazole-4-carboxamide] |
| < 10 | < 10 | < 10 | NC(=O)c1nc(-c2c(F)cccc2F)oc1Nc1ccc(C(=O)N2CCC[C@@H]2CO)cc1 [Example U-12, (R)-2-(2,6-difluorophenyl)-5-(4-(2-(hydroxymethyl)pyrrolidine-1-carbonyl)phenylamino)oxazole-4-carboxamide] |
| < 10 | < 10 | < 10 | NC(=O)c1nc(-c2c(F)cccc2F)oc1Nc1ccc(C(=O)N2CCC[C@H]2CO)cc1 [Example U-13, (S)-2-(2,6-difluorophenyl)-5-(4-(2-(hydroxymethyl)pyrrolidine-1-carbonyl)phenylamino)oxazole-4-carboxamide] |
| < 10 | < 10 | < 10 | NC(=O)c1nc(-c2c(F)cccc2F)oc1Nc1ccc(C(=O)N2CCCCC2CO)cc1 (stereo not drawn) [Example U-14, 2-(2,6-difluorophenyl)-5-(4-(2-(hydroxymethyl)piperidine-1-carbonyl)phenylamino) oxazole-4-carboxamide] |
| < 10 | < 10 | < 10 | NC(=O)c1nc(-c2c(F)cccc2F)oc1Nc1ccc(C(=O)N2CCCC(O)C2)cc1 (stereo not drawn) [Example U-15, 2-(2,6-difluorophenyl)-5-(4-(3-hydroxypiperidine-1-carbonyl)phenylamino)oxazole-4-carboxamide] |
| < 10 | < 10 | < 10 | NC(=O)c1nc(-c2c(F)cccc2F)oc1Nc1ccc(C(=O)NCCO)cc1 [Example U-16, 5-(4-((2-hydroxyethyl)carbamoyl)phenylamino)-2-(2,6-difluorophenyl)oxazole-4-carboxamide] |
| < 10 | < 10 | < 10 | NC(=O)c1nc(-c2c(F)cccc2F)oc1Nc1ccc(C(=O)NCCCO)cc1 [Example U-17, 5-(4-((3-hydroxypropyl)carbamoyl)phenylamino)-2-(2,6-difluorophenyl)oxazole-4-carboxamide] |

Reference: US9187465B2, “Oxazole tyrosine kinase inhibitors” (Sareum Limited, priority 2007, dated 2015)
